Reference: patent publication US12612622B2, “Targeted mutagenesis using base editors” (Qi Biodesign Biotechnology Company Limited, priority 2018, dated 2026)
Read-outs that look alike come from different tables or passages of the source.

Tests used:
OsACC = assay: Saturated de novo mutagenesis of OsACC CT domain in rice protoplasts, 20 sgRNAs; type: cell-based
Source text: To test the ability of STEME to achieve saturated de novo mutagenesis in rice protoplasts, it has been taken acetyl-coenzyme A carboxylase (OsACC) as an example. ACC is a key enzyme in lipid biosynthesis and its carboxyltransferase (CT) domain is the target of herbicides (FIG. 5 b). Amino acid substitutions in the CT domain can confer herbicides resistance on grass. 20 sgRNAs has been designed, including 11 sgRNAs with forward direction NGD-3′ PAMs and 9 with reverse complement 5′-HCN (H=A, T or C) PAMs spanning a 168 bp DNA sequence that encodes 56 amino acids of the CT domain (FIG. 5b). Using STEME-NG, the sgRNAs covered 90.32% of the cytosines, 40.43% of the adenines, 77.78% of the guanines, and 38.89% of the thymines in the editing windows, corresponding in all to 61.31% of the bases of the coding strand. These sgRNAs has been co-transfected individually together with STEME-NG into rice protoplasts. A3A-PBE-NG and pCas9-NG served as controls. […] No base conversions were detected in the untreated control.
We also analyzed the amino acid substitutions generated by STEME-NG in the targeted 56 amino acids. […] Of these, twenty-four, twelve, and five amino acids had one, two, and three kinds of amino acids substitution, respectively. […] Similarly, A3A-PBE-NG mutated 33 amino acids, of which twenty-six, six, and one contained one, two, and three kinds of amino acids substitution, respectively. […] Thus, it promises to be a powerful tool for directed evolution of endogenous genes by saturated de novo mutagenesis in situ.
We used the Japonica rice variety Nipponbare to prepare protoplasts. Protoplast isolation and transformation were performed as described (Shan, Q. et al. Rapid and efficient gene modification in rice and Brachypodium using TALENs. Mol. Plant 6, 1365-1368 (2013).). 10 μg each of nuclease and sgRNA plasmid DNA were introduced into the protoplasts by PEG-mediated transfection, with a mean transformation efficiency of 40-55% as measured by hemocytometer. The transfected protoplasts were incubated at 23° C. and 60 h post-transfection they were collected and genomic DNA extracted for amplicon deep sequencing.
DNA extraction. The genomic DNA of protoplasts was extracted with a DNA-Quick Plant System (Tiangen Biotech, Beijing, China). Genomic DNA of regenerated rice seedlings was extracted with CTAB, and all the seedlings in each group were sampled together. The targeted site was amplified with specific primers, and the amplicons were purified with an EasyPure PCR Purification Kit (TransGen Biotech, Beijing, China), and quantified with a NanoDrop™ 2000 Spectrophotometer (Thermo Fisher Scientific, Waltham, MA, USA).

OsACCase gene = assay: Base editing (pZRH-PBE + individual sgRNAs) of OsACCase functional domain in transgenic M0 rice plants; type: in vivo; settings: for Frequency of indel (%) / Frequency of substitution (%) / No. of WT / No. of indel / No. of substitution: transgenic M0 plants; for No. of WT / No. of indel / No. of substitution: per sgRNA target
Source text: For individual cloning, the following method is used. APOBEC1, partial nCas9 and UGI sequences (SEQ ID NO: 129) without BsaI were synthesized commercially (GenScript, Nanjing, China) and cloned into the pUC57 (SEQ ID NO: 130) as intermediate vector. […] The full length APOBEC1-nCas9-UGI was excised using XmaJI and SacI, then was subcloned into pHUE411 that had been digested using the same two enzymes. The resultant vector pZRH-PBE (SEQ ID NO: 133) was used to construct sgRNA expression plasmids using restriction enzyme site BsaI.

[1] = system: rice seedlings with OsACC mutations
Source text: The herbicide was applied with pressurized equipment at 0.2 MPa and a spray volume of 450 L/ha. Three weeks later, surviving seedlings were identified.

[2] = edited allele with the substitution of the same table line

Compound	No. of alleles (OsACCase gene; [2])	Frequency of indel (%) (OsACCase gene)	Frequency of substitution (%) (OsACCase gene)	No. of WT (OsACCase gene)	No. of indel (OsACCase gene)	No. of substitution (OsACCase gene)	No. of alleles (OsACCase gene; unedited target site sequence)	further results
A3A-PBE-NG: A3A-PBE with nCas9-NG (D10A); protein SEQ ID NO: 186								amino acids with one kind of amino acid substitution (OsACC): twenty-six; amino acids with three kinds of amino acid substitution (OsACC): one; amino acids with two kinds of amino acid substitution (OsACC): six; A>G or T>C substitutions (OsACC; coding strand): no A>G or T>C substitutions were found; Cs converted to Ts in the covered bases (OsACC; coding strand): 89.29%; Gs converted to As in the covered bases (OsACC; coding strand): 92.86%; amino acids substituted (OsACC; of the targeted 56 amino acids, silent, missense, nonsense): 33; indels (OsACC; rice protoplasts, 20 sgRNAs): < 0.01%
R19: sgRNA in pZRH-PBE; OsACCase target site TGCTTATTCTAGGGCATATAAGG (SEQ ID NO: 71) (expressed or natural sequence; target site or template, no part of the molecule)	1	0.0	6.9	27	0	2	1	
R23: sgRNA in pZRH-PBE; OsACCase target site GCGTTTCTAATATATTGAGGTGG (SEQ ID NO: 81) (expressed or natural sequence; target site or template, no part of the molecule)	9	0.0	22.2	21	0	6	3	
CC(Oc1ccc(Oc2ncc(C(F)(F)F)cc2Cl)cc1)C(=O)O (centres unmarked) [haloxyfop]								herbicide resistance of seedlings ([1]; Group 2 seedlings, S1866F heterozygotes): slightly weaker haloxyfop resistance; herbicide resistance of seedlings ([1]; Group 3 seedlings, A1884P heterozygotes): slightly weaker haloxyfop resistance; herbicide resistance of seedlings ([1]; Group 6 seedlings carrying P1927F, spray 34 g active ingredient ha-1, three weeks): clearly herbicide resistant; herbicide resistance of seedlings ([1]; Group 20 seedlings carrying W2125C, spray 34 g active ingredient ha-1, three weeks): clearly herbicide resistant
